Source: US4957730A, “Antimycotic nail varnish” (Hoechst Aktiengesellschaft, priority 1985, dated 1990)
In brackets after ≈: the same amount, converted by molar mass.

Tests used:
[1] = system: Trichophyton mentagrophytes 109 (100/25); experiment: in vitro series dilution test (MIC); type: cell-based; conditions: T. mentagrophytes
Description: (§1) The results of these experiments are shown in Table 1 in comparison with the efficacy of the pyridone compounds against the highly virulent skin fungus Trichophyton mentagrophytes 109 (100/25) in the in vitro series dilution test and in the guinea pig trichophytosis model.
*Minimum inhibitory concentration (MIC) in the series dilution test

[2] = system: Trichophyton mentagrophytes 109 (100/25); experiment: guinea pig trichophytosis model, inhibition on the skin surface; set-up: concentration or dose not given beside the values; conditions: in vivo
Description: as §1
**Percentage inhibition on the skin surface in the guinea pig
Trichophytosis model (W. Dittmar, Mykosen 18 (8), 351-361 (1975)

[3] = system: T. mentagrophytes; experiment: penetration test on excised pig skin: growth inhibition in the lowest region of the horny layer
Procedure: The test method for penetration capacity on excised skin from pigs enables the capacity to penetrate of an effective concentration of compounds horny tissue to be tested.
(§2) In the tests for the penetration capacity, the surface of shaved pieces of skin was first treated with 0.3% strength solutions of the compounds 1-8 and likewise with three similar compounds not claimed, in each case dissolved in a mixture of 1 ml of dimethyl sulfoxide and 9 ml of isopropanol, at room temperature and was washed again after 2 hours. The lowest region of the horny layer was then exposed by removing the superficial layers by peeling off with adhesive strips ten times in succession. The deep-lying horny layer now exposed was inoculated with virulent pathogens of nail mycoses (dermatophytes). Conclusions as to the level of the penetration capacity were drawn on the basis of the degree of growth inhibition found.
as §1
***Horny layer penetration: percentage growth inhibition by the substance
which has penetrated into the lowest part of the horny layer.
(§3) *Time between application of the product and stripping of the skin

[4] = system: Trichophyton mentagrophytes; experiment: penetration test on horny human skin with nail varnishes: growth inhibition in the deep horny layer; conditions: for growth inhibition of Trichophyton mentagrophytes in the deep lying horny layer of human skin: in words, 1 or 2 hours
Procedure: as §2
In further experiments, the substantially thicker horny human skin was treated by the test method described above at room temperature for 1 or 2 hours with 3% strength nail varnishes of compounds 9 and 10 and likewise with a similar compound 4, which is not claimed, in comparison with the abovementioned nail varnish containing sulbentine. The varnish base of examples 9 and 10 and of comparison 4 and 5 was prepared by mixing the following constituents:
2-Hydroxy-4-methoxybenzophenone: 0.1%
Sodium dioctyl sulfosuccinate: 1.0%
50% strength solution of a copolymer of methyl vinyl ether and monobutyl maleate in isopropyl alcohol: 30.0%
as §3

[5] = Table 1, pig skin, 0.3% strength solutions, washed after 2 hours, lowest part of horny layer
[6] = humans, 3% strength varnishes, action time 60 min
[7] = humans, 3% strength varnishes, action time 120 min

Cc1cc(CCCCc2ccccc2)n(O)c(=O)c1 [Comparison 3, reference compound]
MIC [1]: 3.9 µg/mL (≈ 15.2 µM)
Inhibition (%) on skin [2]: 88,0%
Inhibition (%) in the horny layer [3, 5]: 24,2%

Cc1cc(C2CCCCC2)n(O)c(=O)c1 [Example 10]
Inhibition (%) in the deep horny layer [4, 6]: 100,0%
Inhibition (%) in the deep horny layer [4, 7]: 100,0%
growth inhibition of Trichophyton mentagrophytes in the deep lying horny layer of human skin ([4]; 3% strength varnishes): almost completely or completely inhibit the growth
Inhibition (%) in the deep horny layer ([3]; 2 h): 98,0%

CCCCC(CC)c1cc(C)cc(=O)n1O (stereo not drawn) [Example 2]
MIC [1]: 1.95 µg/mL (≈ 8.73 µM)
Inhibition (%) on skin [2]: 85,6%
Inhibition (%) in the horny layer ([3]; 2 h): 85,8%

Cc1ccc(Cc2cc(C)c(C)c(=O)n2O)c(C)c1 [Example 7]
MIC [1]: 1.95 µg/mL (≈ 7.58 µM)
Inhibition (%) on skin [2]: 88,8%
Inhibition (%) in the horny layer [3, 5]: 80,0%

CCCCCCCc1cc(C)cc(=O)n1O [Example 1]
MIC [1]: 1.95 µg/mL (≈ 8.73 µM)
Inhibition (%) on skin [2]: 89,4%
Inhibition (%) in the horny layer [3, 5]: 97,0%

Cc1cc(CCC2CCCCC2)n(O)c(=O)c1 [Example 5]
MIC [1]: 1.95 µg/mL (≈ 8.29 µM)
Inhibition (%) on skin [2]: 88,0%
Inhibition (%) in the horny layer [3, 5]: 81,2%

CCCCCCCCCCCc1cc(C)cc(=O)n1O [Comparison 2, reference compound]
Inhibition (%) in the deep horny layer [4, 6]: 51,4%
Inhibition (%) in the deep horny layer [4, 7]: 49,4%
growth inhibition of Trichophyton mentagrophytes in the deep lying horny layer of human skin ([4]; 3% strength varnishes): only an inadequate inhibiting effect
MIC [1]: 3.9 µg/mL (≈ 14 µM)
Inhibition (%) on skin [2]: 100,0%
Inhibition (%) in the deep horny layer ([3]; 2 h): 9,8%
Inhibition (%) in the horny layer [3, 5]: 9,8%

Cc1cc(CC(C)CC(C)(C)C)n(O)c(=O)c1 (stereo not drawn) [Example 3]
MIC [1]: 1.95 µg/mL (≈ 8.22 µM)
Inhibition (%) on skin [2]: 91,9%
Inhibition (%) in the horny layer [3, 5]: 99,6%

Cc1cc(C2CC3CCC2C3)n(O)c(=O)c1 (stereo not drawn) [Example 6]
MIC [1]: 1.95 µg/mL (≈ 8.89 µM)
Inhibition (%) on skin [2]: 88,0%
Inhibition (%) in the horny layer [3, 5]: 79,9%

Cc1cc(C(C)C)n(O)c(=O)c1 [Comparison 1, reference compound]
MIC [1]: 1.95 µg/mL (≈ 11.7 µM)
Inhibition (%) on skin [2]: 75,0%
Inhibition (%) in the horny layer [3, 5]: 35,7%

Cc1cc(CC(C)CC(C)(C)C)n(O)c(=O)c1 (stereo not drawn) [Example 9]
Inhibition (%) in the deep horny layer ([4]; 1 h): 99,0%
Inhibition (%) in the deep horny layer ([4]; 2 h): 99,9%
growth inhibition of Trichophyton mentagrophytes in the deep lying horny layer of human skin ([4]; 3% strength varnishes): almost completely or completely inhibit the growth
Inhibition (%) in the deep horny layer ([3]; 2 h): 99,6%

Cc1cc(CCc2ccccc2)n(O)c(=O)c1 [Example 8]
MIC [1]: 1.95 µg/mL (≈ 8.5 µM)
Inhibition (%) on skin [2]: 88,0%
Inhibition (%) in the horny layer [3, 5]: 81,9%

Cc1cc(C2CCCCC2)n(O)c(=O)c1 [Example 4]
MIC [1]: 1.95 µg/mL (≈ 9.41 µM)
Inhibition (%) on skin [2]: 88,0%
Inhibition (%) in the horny layer [3, 5]: 98,0%
